Results on 26 compounds are retold here after patent US20120238549A1, “Nuclear Hormone Receptor Modulators” (ABBOTT LABORATORIES, priority 2011, published 2012).

The target of this test is T1, Glucocorticoid Receptor (GR) (Homo sapiens, UniProt P04150).
T1 construct: purchased Invitrogen P2893
T1 sequence (P04150 1-777): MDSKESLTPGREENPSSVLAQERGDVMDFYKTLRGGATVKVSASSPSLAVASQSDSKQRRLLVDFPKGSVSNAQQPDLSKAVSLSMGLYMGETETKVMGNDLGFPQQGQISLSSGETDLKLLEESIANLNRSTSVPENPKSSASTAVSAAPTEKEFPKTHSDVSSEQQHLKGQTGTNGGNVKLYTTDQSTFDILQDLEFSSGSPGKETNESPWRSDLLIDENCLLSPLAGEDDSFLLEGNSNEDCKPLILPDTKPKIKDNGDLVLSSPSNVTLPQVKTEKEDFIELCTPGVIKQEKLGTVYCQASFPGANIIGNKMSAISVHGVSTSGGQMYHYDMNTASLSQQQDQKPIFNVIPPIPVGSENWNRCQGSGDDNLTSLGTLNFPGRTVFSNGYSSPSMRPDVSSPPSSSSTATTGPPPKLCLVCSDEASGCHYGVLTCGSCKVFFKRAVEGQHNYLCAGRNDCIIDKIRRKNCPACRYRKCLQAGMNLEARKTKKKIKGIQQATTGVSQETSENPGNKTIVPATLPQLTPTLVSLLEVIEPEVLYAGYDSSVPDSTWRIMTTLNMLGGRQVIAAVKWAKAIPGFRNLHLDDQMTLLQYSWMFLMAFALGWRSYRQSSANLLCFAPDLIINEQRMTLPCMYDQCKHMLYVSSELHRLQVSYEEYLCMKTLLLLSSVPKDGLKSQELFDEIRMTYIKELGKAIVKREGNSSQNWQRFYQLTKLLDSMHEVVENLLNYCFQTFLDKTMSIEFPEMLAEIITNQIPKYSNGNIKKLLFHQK
Kind of test: GR Florescence Polarization Assay (PolarScreen Glucocorticoid Receptor Competitor Assay, Red). Particulars: Fluorescense polarization binding ranges; competition with fluorescent glucocorticoid, incubated overnight at 4° C. The method, boiled down: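 Competitive fluorescence polarization using fluorescent glucocorticoid tracer and human GR in kit buffer. Compounds serially diluted 1:4 in DMSO, incubated with tracer and GR overnight at 4 °C before polarization read.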
In turn, `Cc1ncccc1NC(=O)c1ccc2c(c1)CCC[C@H]1C[C@](C)(O)CC[C@@]21Cc1ccccc1` (racemic) [Example 30, (7aS,9R,11aS)-11a-Benzyl-9-hydroxy-9-methyl-6,7,7a,8,9,10,11,11a-octahydro-5H-dibenzo[a,c]cycloheptene-3-carboxylic acid (2-methyl-pyridin-3-yl)-amide; compound with (7aR,9S,11aR)-11a-benzyl-9-hydroxy-9-methyl-6,7,7a,8,9,10,11,11a-octahydro-5H-dibenzo[a,c]cycloheptene-3-carboxylic acid (2-methyl-pyridin-3-yl)-amide] gave an IC50 of under 100 nM.

With `CC[C@@]1(O)CC[C@@]2(Cc3ccccc3)c3ccc(C(=O)Nc4nncs4)cc3CCC[C@H]2C1` [Example 74], the IC50 is 100 to 1000 nM.

Compound `CC[C@]1(O)CC[C@]2(CC)c3ccc(C(=O)Nc4cccnc4C)cc3CCC[C@@H]2C1` [Example 46] yielded an IC50 of 100 to 1000 nM.

In turn, `Cc1ncccc1NC(=O)c1ccc2c(c1)CN(C)C[C@@H]1C[C@@](O)(C(F)(F)F)CC[C@@]21Cc1ccccc1` [Example 117, (3R,4aR,11bS)-11b-Benzyl-3-hydroxy-6-methyl-N-(2-methylpyridin-3-yl)-3-(trifluoromethyl)-2,3,4,4a,5,6,7,11b-octahydro-1H-dibenzo[c,e]azepine-9-carboxamide] returned an IC50 of 100 to 1000 nM.

Turning to `CCC[C@@]1(O)CC[C@@]2(CC)c3ccc(C(=O)Nc4cccnc4C)cc3CCC[C@H]2C1` (single isomer, unassigned) [Example 45], the IC50 was under 100 nM.

In turn, `CC[C@@]1(O)CC[C@@]2(Cc3ccccc3)c3ccc(C(=O)Nc4nnnn4C)cc3CCC[C@H]2C1` [Example 78] gave an IC50 of under 100 nM.

In turn, `CC[C@@]1(O)CC[C@@]2(Cc3ccccc3)c3ccc(C(=O)Nc4cnc(C)nc4C)cc3CCC[C@H]2C1` [Example 68, (7aS,9R,11aS)-11a-Benzyl-9-ethyl-9-hydroxy-6,7,7a,8,9,10,11,11a-octahydro-5H-dibenzo[a,c]cycloheptene-3-carboxylic acid (2,4-dimethyl-pyrimidin-5-yl)-amide] yielded an IC50 of under 100 nM.

Regarding `Cc1ncccc1NC(=O)c1ccc2c(c1)CCC[C@H]1CC(C)(O)CC[C@]21Cc1ccccc1` (stereo in doubt) [Example 91, (7aS,9R,11aR)-11a-benzyl-9-hydroxy-9-methyl-6,7,7a,8,9,10,11,11a-octahydro-5H-dibenzo[a,c]cycloheptene-3-carboxylic acid (2-methyl-pyridin-3-yl)-amide], the IC50 lay within 100 to 1000 nM.

On to `CC[C@@]12CC[C@](O)(c3ccccc3)C[C@@H]1CCOc1cc(C(=O)Nc3cccnc3C)ccc12` (racemic) [Example 134, (7aS,9R,11aR)-11a-Ethyl-9-hydroxy-N-(2-methylpyridin-3-yl)-9-phenyl-6,7,7a,8,9,10,11,11a-octahydrodibenzo[b,d]oxepine-3-carboxamide; compound with (7aR,9S,11aS)-11a-ethyl-9-hydroxy-N-(2-methylpyridin-3-yl)-9-phenyl-6,7,7a,8,9,10,11,11a-octahydrodibenzo[b,d]oxepine-3-carboxamide], for which the IC50 was under 100 nM.

In turn, `CC[C@@]1(O)CC[C@@]2(Cc3ccccc3)c3ccc(C(=O)Nc4ccc(-c5cn[nH]c5)nc4C)cc3CCC[C@H]2C1` [Example 88] registered an IC50 of under 100 nM.

In turn, `CC[C@@]12C[C@@H](O)[C@](O)(c3ccccc3)C[C@@H]1CCOc1cc(C(=O)Nc3cccnc3C)ccc12` (racemic) [Example 135, (7aS,9R,10R,11aR)-11a-Ethyl-9,10-dihydroxy-N-(2-methylpyridin-3-yl)-9-phenyl-6,7,7a,8,9,10,11,11a-octahydrodibenzo[b,d]oxepine-3-carboxamide; compound with (7aR,9S,10S,11aS)-11a-ethyl-9,10-dihydroxy-N-(2-methylpyridin-3-yl)-9-phenyl-6,7,7a,8,9,10,11,11a-octahydrodibenzo[b,d]oxepine-3-carboxamide] registered an IC50 of 100 to 1000 nM.

The compound `Cc1ncccc1NC(=O)c1ccc2c(c1)C(=O)NC[C@H]1CC(O)(C(F)(F)F)CC[C@@]21Cc1ccccc1` (stereo partly drawn) [Example 22, (4aS,11bS)-11b-benzyl-3-hydroxy-N-(2-methylpyridin-3-yl)-7-oxo-3-(trifluoromethyl)-2,3,4,4a,5,6,7,11b-octahydro-1H-dibenzo[c,e]azepine-9-carboxamide] displayed an IC50 of over 10000 nM.

`CC[C@@]1(O)CC[C@@]2(Cc3ccccc3)c3ccc(C(=O)Nc4ccc(C)nc4C)cc3CCC[C@H]2C1` [Example 72] showed an IC50 of under 100 nM.

Turning to `Cc1ncccc1NC(=O)c1ccc2c(c1)CCC[C@H]1C[C@](O)(C(F)(F)F)CC[C@]21Cc1ccccc1` [Example 107, (7aS,9S,11aR)-11a-Benzyl-9-hydroxy-9-trifluoromethyl-6,7,7a,8,9,10,11,11a-octahydro-5H-dibenzo[a,c]cycloheptene-3-carboxylic acid (2-methyl-pyridin-3-yl)-amide], the IC50 was in the range of 100 to 1000 nM.

For `CC[C@@]1(O)CC[C@@]2(Cc3ccccc3)c3ccc(C(=O)Nc4ccncc4C)cc3CCC[C@H]2C1` [Example 70], the IC50 was under 100 nM.

Compound `CC#C[C@]1(O)CC[C@@]2(Cc3ccccc3)c3ccc(O)cc3CCC[C@H]2C1` (racemic) [Example 28, (3S,4aS,11bS)-11b-Benzyl-3-prop-1-ynyl-2,3,4,4a,5,6,7,11b-octahydro-1H-dibenzo[a,c]cycloheptene-3,9-diol; compound with (3R,4aR,11bR)-11b-benzyl-3-prop-1-ynyl-2,3,4,4a,5,6,7,11b-octahydro-1H-dibenzo[a,c]cycloheptene-3,9-diol] gave an IC50 of 100 to 1000 nM.

For `CCC[C@@]1(O)CC[C@@]2(CC)c3ccc(C(=O)Nc4cccnc4C)cc3OCC[C@H]2C1` (racemic) [Example 119, (7aS,9R,11aR)-11a-Ethyl-9-hydroxy-N-(2-methylpyridin-3-yl)-9-propyl-6,7,7a,8,9,10,11,11a-octahydrodibenzo[b,d]oxepine-3-carboxamide; compound with (7aR,9S,11aS)-11a-ethyl-9-hydroxy-N-(2-methylpyridin-3-yl)-9-propyl-6,7,7a,8,9,10,11,11a-octahydrodibenzo[b,d]oxepine-3-carboxamide], the IC50 is under 100 nM.

For the compound `CC[C@@]12C[C@@H](O)[C@](O)(c3ccccc3)C[C@@H]1CCCc1cc(C(=O)Nc3cccnc3C)ccc12` (single isomer, unassigned) [Example 124], the IC50 fell in the range of 1000 to 10000 nM.

Consider `CC[C@@]1(O)CC[C@@]2(Cc3ccccc3)c3ccc(C(=O)Nc4ccc(-c5ccn[nH]5)nc4C)cc3CCC[C@H]2C1` [Example 86, (7aS,9R,11aS)-11a-Benzyl-9-ethyl-9-hydroxy-6,7,7a,8,9,10,11,11a-octahydro-5H-dibenzo[a,c]cycloheptene-3-carboxylic acid [2-methyl-6-(2H-pyrazol-3-yl)-pyridin-3-yl]-amide], for which the IC50 is under 100 nM.

For the compound `Cc1ncccc1NC(=O)c1ccc2c(c1)CCC[C@H]1C[C@@](O)(COCCS(C)(=O)=O)CC[C@@]21Cc1ccccc1` (racemic) [Example 105], the IC50 was under 100 nM.

`Cc1ncccc1NC(=O)c1ccc2c(c1)CCCC1=C[C@](C)(O)CC[C@]12Cc1ccccc1` (racemic) [Example 19, (9R,11aS)-11a-Benzyl-9-hydroxy-9-methyl-6,7,9,10,11,11a-hexahydro-5H-dibenzo[a,c]cycloheptene-3-carboxylic acid (2-methyl-pyridin-3-yl)-amide; compound with (9S,11aR)-11a-benzyl-9-hydroxy-9-methyl-6,7,9,10,11,11a-hexahydro-5H-dibenzo[a,c]cycloheptene-3-carboxylic acid (2-methyl-pyridin-3-yl)-amide] yielded an IC50 of under 100 nM.

In turn, `CC[C@@]1(O)CC[C@@]2(Cc3ccccc3)c3ccc(C(=O)Nc4cc(C)[nH]n4)cc3CCC[C@H]2C1` [Example 79] came in with an IC50 of under 100 nM.

`CC[C@]1(O)CC[C@]2(CC)c3ccc(C(=O)Nc4cccnc4C)cc3COC[C@@H]2C1` [Example 141]: the IC50 was over 10000 nM.

`CCCOC[C@]1(O)CC[C@]2(Cc3ccccc3)c3ccc(C(=O)Nc4cccnc4C)cc3CCC[C@@H]2C1` [Example 99] gave a 50% inhibitory concentration (IC50) of 1000 to 10000 nM.

In the case of `Cc1ncccc1NC(=O)c1ccc2c(c1)CN(C)C[C@H]1CC(=O)CC[C@@]21Cc1ccccc1` [Example 108, (4aS,11bS)-11b-Benzyl-6-methyl-N-(2-methylpyridin-3-yl)-3-oxo-2,3,4,4a,5,6,7,11b-octahydro-1H-dibenzo[c,e]azepine-9-carboxamide], the IC50 was 1000 to 10000 nM.

Take `Cc1ncccc1NC(=O)c1ccc2c(c1)CCC[C@@H]1CC(=O)CC[C@@]21Cc1ccccc1` (racemic) [Example 8, (7aR,11aS)-11a-Benzyl-9-oxo-6,7,7a,8,9,10,11,11a-octahydro-5H-dibenzo[a,c]cycloheptene-3-carboxylic acid (2-methyl-pyridin-3-yl)-amide; compound with (7aS,11aR)-11a-benzyl-9-oxo-6,7,7a,8,9,10,11,11a-octahydro-5H-dibenzo[a,c]cycloheptene-3-carboxylic acid (2-methyl-pyridin-3-yl)-amide]: the IC50 is under 100 nM.
